Results from the NIST ThermoML archive (doi:10.1016/j.jct.2016.03.030).

Assay: xn = mol fraction of the nth substance listed
Conditions: 100 kPa, Liquid; for viscosity: Falling or rolling sphere viscometry; for mass density: Vibrating tube method

CCC[N+]1(C)CCOCC1.[Br-] [4-methyl-4-propylmorpholinium bromide] + O
Conditions | mass density [kg/m3] | viscosity [mPa·s]
298.15 K, x1 = 0.0336 | 1084.6 | 1.651
298.15 K, x1 = 0.0618 | 1135.4 | 2.638
298.15 K, x1 = 0.0875 | 1170.4 | 4.066
298.15 K, x1 = 0.1298 | 1213 | 8.208
298.15 K, x1 = 0.1709 | 1242.8 | 15.89
298.15 K, x1 = 0.2036 | 1260.9 | 26.67
298.15 K, x1 = 0.254 | 1282.4 | 62.45
298.15 K, x1 = 0.2742 | 1289.4 | 90.09
298.15 K, x1 = 0.3025 | 1298.2 | 154
303.15 K, x1 = 0.0336 | 1082.5 | 1.45
303.15 K, x1 = 0.0618 | 1132.9 | 2.291
303.15 K, x1 = 0.0875 | 1167.6 | 3.483
303.15 K, x1 = 0.1298 | 1209.9 | 6.823
303.15 K, x1 = 0.1709 | 1239.6 | 12.9
303.15 K, x1 = 0.2036 | 1257.7 | 20.98
303.15 K, x1 = 0.254 | 1279.2 | 46.52
303.15 K, x1 = 0.2742 | 1286.1 | 66.14
303.15 K, x1 = 0.3025 | 1294.9 | 108.8
308.15 K, x1 = 0.0336 | 1080.2 | 1.281
308.15 K, x1 = 0.0618 | 1130.2 | 2.002
308.15 K, x1 = 0.0875 | 1164.7 | 3
308.15 K, x1 = 0.1298 | 1206.8 | 5.723
308.15 K, x1 = 0.1709 | 1236.4 | 10.62
308.15 K, x1 = 0.2036 | 1254.4 | 16.76
308.15 K, x1 = 0.254 | 1275.9 | 35.35
308.15 K, x1 = 0.2742 | 1282.8 | 49.51
308.15 K, x1 = 0.3025 | 1291.6 | 79.28
313.15 K, x1 = 0.0336 | 1077.8 | 1.14
313.15 K, x1 = 0.0618 | 1127.5 | 1.761
313.15 K, x1 = 0.0875 | 1161.7 | 2.61
313.15 K, x1 = 0.1298 | 1203.6 | 4.854
313.15 K, x1 = 0.1709 | 1233.1 | 8.847
313.15 K, x1 = 0.2036 | 1251.1 | 13.62
313.15 K, x1 = 0.254 | 1272.6 | 27.4
313.15 K, x1 = 0.2742 | 1279.5 | 38.4
313.15 K, x1 = 0.3025 | 1288.3 | 59.26
318.15 K, x1 = 0.0336 | 1075.3 | 1.02
318.15 K, x1 = 0.0618 | 1124.7 | 1.559
318.15 K, x1 = 0.0875 | 1158.7 | 2.287
318.15 K, x1 = 0.1298 | 1200.4 | 4.155
318.15 K, x1 = 0.1709 | 1229.9 | 7.459
318.15 K, x1 = 0.2036 | 1247.8 | 11.23
318.15 K, x1 = 0.254 | 1269.2 | 21.7
318.15 K, x1 = 0.2742 | 1276.2 | 30.07
318.15 K, x1 = 0.3025 | 1285.1 | 45.23
323.15 K, x1 = 0.0336 | 1072.3 | 0.909
323.15 K, x1 = 0.0618 | 1121.8 | 1.372
323.15 K, x1 = 0.0875 | 1155.7 | 1.988
323.15 K, x1 = 0.1298 | 1197.2 | 3.541
323.15 K, x1 = 0.1709 | 1226.6 | 6.268
323.15 K, x1 = 0.2036 | 1244.5 | 9.267
323.15 K, x1 = 0.254 | 1265.9 | 17.23
323.15 K, x1 = 0.2742 | 1272.9 | 23.66
323.15 K, x1 = 0.3025 | 1281.7 | 34.94
328.15 K, x1 = 0.0336 | 1069.9 | 0.812
328.15 K, x1 = 0.0618 | 1118.8 | 1.215
328.15 K, x1 = 0.0875 | 1152.5 | 1.742
328.15 K, x1 = 0.1298 | 1193.9 | 3.047
328.15 K, x1 = 0.1709 | 1223.2 | 5.322
328.15 K, x1 = 0.2036 | 1241.1 | 7.756
328.15 K, x1 = 0.254 | 1262.6 | 13.96
328.15 K, x1 = 0.2742 | 1269.5 | 19.1
328.15 K, x1 = 0.3025 | 1278.4 | 27.52
333.15 K, x1 = 0.0336 | 1066.3 | 0.736
333.15 K, x1 = 0.0618 | 1115.5 | 1.088
333.15 K, x1 = 0.0875 | 1149.1 | 1.547
333.15 K, x1 = 0.1298 | 1190.6 | 2.654
333.15 K, x1 = 0.1709 | 1219.9 | 4.582
333.15 K, x1 = 0.2036 | 1237.8 | 6.587
333.15 K, x1 = 0.254 | 1259.2 | 11.53
333.15 K, x1 = 0.2742 | 1266.2 | 15.71
333.15 K, x1 = 0.3025 | 1275.1 | 22.11
338.15 K, x1 = 0.0336 | 1064.5 | 0.668
338.15 K, x1 = 0.0618 | 1113.1 | 0.979
338.15 K, x1 = 0.0875 | 1145.3 | 1.378
338.15 K, x1 = 0.1298 | 1187.3 | 2.426
338.15 K, x1 = 0.1709 | 1216.5 | 4.142
338.15 K, x1 = 0.2036 | 1234.4 | 5.636
338.15 K, x1 = 0.254 | 1255.9 | 9.633
338.15 K, x1 = 0.2742 | 1262.9 | 12.97
338.15 K, x1 = 0.3025 | 1271.7 | 18.05
343.15 K, x1 = 0.0336 | 1061.9 | 0.63
343.15 K, x1 = 0.0618 | 1110.2 | 0.925
343.15 K, x1 = 0.0875 | 1142 | 1.303
343.15 K, x1 = 0.1298 | 1183.9 | 2.269
343.15 K, x1 = 0.1709 | 1213.1 | 4.062
343.15 K, x1 = 0.2036 | 1231 | 4.879
343.15 K, x1 = 0.254 | 1252.5 | 8.213
343.15 K, x1 = 0.2742 | 1259.5 | 10.96
343.15 K, x1 = 0.3025 | 1268.4 | 14.99
